How the values were obtained:
[1] = target: T1, S100A12 (Homo sapiens, UniProt P80511); assay: fluorescence titration (tranilast emission, excitation […] nm); 1H-15N HSQC NMR titration; type: binding
T1 sequence (P80511 2-92): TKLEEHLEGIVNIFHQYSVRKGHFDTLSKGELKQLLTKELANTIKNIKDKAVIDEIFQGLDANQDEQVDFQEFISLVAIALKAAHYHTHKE

[2] = target: T2, RAGE V domain V domain (Homo sapiens, UniProt Q15109); assay: fluorescence titration (Trp)
T2 chain: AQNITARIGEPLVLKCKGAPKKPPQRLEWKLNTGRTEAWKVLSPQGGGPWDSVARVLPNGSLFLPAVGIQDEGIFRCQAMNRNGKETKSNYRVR

## COc1ccc(/C=C/C(=O)Nc2ccccc2C(=O)O)cc1OC [tranilast]
[1]
  Kd: 6.1 ± 1.4 µM

B1: S100A12 (protein)
chain: T1 sequence (P80511 2-92)
modifications: Ca2+
[2]
  Kd: ~3.1 µM
